Test results: PMC11642016 (International Journal of Molecular Sciences, 2024)
“And” between values parts separate entries of the source, which are not always exact repeats. Equal values may be shown once. Read-outs that look alike come from different tables or passages of the source.

Legend:
[1] = tested on: non-tumorous primary fibroblast cells; experiment: CellTiter-Glo luminescent cell viability assay, primary fibroblasts; conditions: for Primer fibroblast Cell viability (% of controll): 72 h, dose–response, individual replicates
[2] = tested on: PANC-1 and Fadu cells; experiment: CellTiter-Glo viability, statements covering both cancer cell lines; type: cell-based, human; conditions: 72 h dose–response
Procedure: The effects of the synthesized compounds on cell viability were measured using the CellTiter-Glo® luminescent cell viability assay (Promega, Madison, WI, USA), according to the manufacturer’s instructions. […] After seeding, cells were incubated for a further 48 h before treatment. Cells were treated with the compounds for 72 h. […] After treatment, the luminescence signal was recorded using a microplate reader (BioTek Synergy 2 Multi-Mode Reader, BioTek, Winooski, VT, USA).

[3] = tested on: Fadu cells; experiment: CellTiter-Glo luminescent cell viability assay, Fadu; conditions: for Fadu Cell viability (% of controll): dose–response, individual replicates
[4] = tested on: HEK293T CLPP^−/− cells; experiment: CellTiter-Glo cell viability assay, HEK293T CLPP−/− (ClpP dependence); conditions: for HEK293T CLPP-/- Cell viability (% of controll): individual replicates;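 on all read-outs here: CellTiter-Glo luminescent signal read on a microplate reader once HEK293T CLPP−/− cells had been exposed to compounds for 72 h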
Procedure: (§1) Primary fibroblast cultures were prepared from human skin biopsies and maintained in DMEM supplemented with 10% FBS, 1% penicillin-streptomycin, and 1% MEM Non-Essential Amino Acids Solution (Thermo Fisher Scientific). […] All cell lines were cultured in a humidified atmosphere at 37 °C and 5% CO2, passaged twice a week, and the experiments were performed on cells between passage 5 and 15. The cell lines were routinely screened for the absence of mycoplasma infection (DAPI staining).
(§2) The effects of the synthesized compounds on cell viability were measured using the CellTiter-Glo® luminescent cell viability assay (Promega, Madison, WI, USA), according to the manufacturer’s instructions. Briefly, cells were seeded onto a flat-bottomed, white 96-well plate (BRANDplates, cat. no.: 781965)), with the following densities: PANC-1: 750 cells/well, Fadu: 2000 cells/well, primary fibroblasts: 2000 cells/well, HEK293T WT: 1000 cells/well, HEK293T CLPP^−/−: 2500 cells/well. After seeding, cells were incubated for a further 48 h before treatment. Cells were treated with the compounds for 72 h. Three concentrations (25.0 µM; 8.3 µM; 2.8 µM) were applied during the initial cell viability screening, while for the determination of dose–response curves, 1.5-fold serially diluted compound concentrations were applied (range: 26 µM–0.7 µM). After treatment, the luminescence signal was recorded using a microplate reader (BioTek Synergy 2 Multi-Mode Reader, BioTek, Winooski, VT, USA).
(§3) Data analysis was performed using GraphPad Prism 9.5.0 software (GraphPad Software, San Diego, CA, USA). […] The dose–response curves were generated by four-parameter nonlinear regression, and the IC50 values were determined as the means ± SEM of the best-fit values of 3 independent measurements. The R^2 values were consistently above 0.93, indicating a strong fit of the model to the experimental data (Supplementary S.89). […] Dunnett’s post hoc test was applied to adjust for multiple comparisons, minimizing the likelihood of false positive results. Assumptions for ANOVA, including normality (assessed via QQ plots) and homogeneity of variance (tested using the Brown–Forsythe test), were verified. The following significance levels were applied: * p < 0.05, ** p < 0.01, *** p < 0.001, **** p < 0.0001. […] The tumor selectivity of the compounds was quantitatively characterized by the selectivity index (SI). This parameter was calculated as the ratio of the average best-fit IC50 value for primary fibroblasts and the best-fit IC50 value for the corresponding tumor cells (PANC-1 or Fadu).

[5] = tested on: HEK293T WT cells; experiment: CellTiter-Glo cell viability assay, HEK293T WT; conditions: for HEK293T WT Cell viability (% of controll): 72 h, dose–response, individual replicates
Procedure: as §1, §2, §3

[6] = tested on: PANC-1 cells; experiment: CellTiter-Glo luminescent cell viability assay, PANC-1; conditions: for PANC-1 Cell viability (% of controll): dose–response, individual replicates
Procedure: as §1, §2, §3

[7] = tested on: PANC-1 cells; experiment: Colony formation (clonogenic) assay; type: cell-based, human; conditions: 4 µM

For CNCC#Cc1cccc(CN2C(=O)C3=C(CCN(Cc4ccc(-n5cc(-[c-]6cccc6)nn5)cc4)C3)N3CCN=C23)c1.[Fe+2].c1cc[cH-]c1 [38a], the “Primer fibroblast Cell viability (% of controll)” value ([1]; 0.7 μM) was 97 % of controll and 105 % of controll and 109 % of controll, the “Primer fibroblast Cell viability (% of controll)” value ([1]; 1 μM) was 111 % of controll and 113 % of controll and 100 % of controll and the “Primer fibroblast Cell viability (% of controll)” value ([1]; 1.5 μM) was 105 % of controll and 113 % of controll and 100 % of controll. For the same compound, the “Primer fibroblast Cell viability (% of controll)” value ([1]; 2.3 μM) was 105 % of controll and 107 % of controll and 101 % of controll, the “Primer fibroblast Cell viability (% of controll)” value ([1]; 3.4 μM) was 108 % of controll (2×) and 100 % of controll and the “Primer fibroblast Cell viability (% of controll)” value ([1]; 5.1 μM) was 9 % of controll (2×) and 6 % of controll. The “Primer fibroblast Cell viability (% of controll)” value ([1]; 7.7 μM) was 0 % of controll, the “Primer fibroblast Cell viability (% of controll)” value ([1]; 17.3 μM) was 0 % of controll and the “Primer fibroblast Cell viability (% of controll)” value ([1]; 26 μM) was 0 % of controll. The IC50 ([1]; read-out: IC50 Value ± SEM Primary Fibroblast, 72 h treatment, best-fit values, n = 3) was 4600 ± 830 nM, the IC50 ([1]; read-out: Primary fibroblast IC50 values, Mean, mean of independently fitted replicate IC50 values (Supplement S.6), ONC201 value mathematically estimated from inflection point) was 4630 nM and the IC50 ([1]; read-out: Primary fibroblast IC50 values, individual replicates n1-n3, IC50 independently determined for each replicate (Supplement S.6), ONC201 value mathematically estimated from inflection point, viability stayed above 50%) was 4800 nM and 4280 nM. The “concentration range of almost complete eradication of PANC-1 and Fadu cells with little to no cytotoxic effect toward fibroblasts” value [2] was 3000 to 4000 nM, the “Fadu Cell viability (% of controll)” value ([3]; 0.7 μM, 72 h) was 109 % of controll and 115 % of controll and 106 % of controll and the “Fadu Cell viability (% of controll)” value ([3]; 1 μM, 72 h) was 110 % of controll and 106 % of controll and 105 % of controll. For the same compound, the “Fadu Cell viability (% of controll)” value ([3]; 1.5 μM, 72 h) was 102 % of controll and 103 % of controll and 100 % of controll, the “Fadu Cell viability (% of controll)” value ([3]; 2.3 μM, 72 h) was 96 % of controll and 91 % of controll and 87 % of controll and the “Fadu Cell viability (% of controll)” value ([3]; 3.4 μM, 72 h) was 43 % of controll and 13 % of controll (2×). For the same compound, the “Fadu Cell viability (% of controll)” value ([3]; 5.1 μM, 72 h) was 0 % of controll, the “Fadu Cell viability (% of controll)” value ([3]; 7.7 μM, 72 h) was 0 % of controll and the “Fadu Cell viability (% of controll)” value ([3]; 17.3 μM, 72 h) was 0 % of controll. The “Fadu Cell viability (% of controll)” value ([3]; 26 μM, 72 h) was 0 % of controll, the “Cell Viability (% of Control) 2.8 µM” value ([3]; Fadu, 2.8 µM, 72 h, second-set screening, mean ± SD, n = 2) was 85 ± 16 % of Control and the “Cell Viability (% of Control) 8.3 µM” value ([3]; Fadu, 8.3 µM, 72 h, second-set screening, mean ± SD, n = 2) was 0 ± 1 % of Control. The “Cell Viability (% of Control) 25 µM” value ([3]; Fadu, 25 µM, 72 h, second-set screening, mean ± SD, n = 2) was 0 ± 0 % of Control, the “Selectivity Index (SI) Fibroblast/Fadu” value ([3]; ratio of mean best-fit IC50 for primary fibroblasts and best-fit IC50 for Fadu) was 1.6 and the IC50 ([3]; read-out: Fadu IC50 values, individual replicates n1-n3, IC50 independently determined for each replicate measurement (Supplement S.6)) was 3.2 µM and 2.75 µM (2×). For the same compound, the IC50 ([3]; read-out: IC50 Value ± SEM Fadu, 72 h treatment, best-fit values, n = 3) was 2900 ± 60 nM, the “HEK293T CLPP-/- Cell viability (% of controll)” value ([4]; 0.4 μM, 72 h, dose–response, listed as CZT456, 0.4 µM) was 109 % of controll and 108 % of controll and 110 % of controll and 114 % of controll and the “HEK293T CLPP-/- Cell viability (% of controll)” value ([4]; 0.6 μM, 72 h, dose–response, listed as CZT456, 0.6 µM) was 111 % of controll and 109 % of controll and 110 % of controll. For the same compound, the “HEK293T CLPP-/- Cell viability (% of controll)” value ([4]; 1.0 μM, 72 h, dose–response, listed as CZT456, 1 µM) was 105 % of controll and 107 % of controll and 106 % of controll, the “HEK293T CLPP-/- Cell viability (% of controll)” value ([4]; 1.6 μM, 72 h, dose–response, listed as CZT456, 1.6 µM) was 92 % of controll and 96 % of controll and 103 % of controll and 93 % of controll and the “HEK293T CLPP-/- Cell viability (% of controll)” value ([4]; 2.5 μM, 72 h, dose–response, listed as CZT456, 2.5 µM) was 41 % of controll and 59 % of controll and 55 % of controll and 48 % of controll. For the same compound, the “HEK293T CLPP-/- Cell viability (% of controll)” value ([4]; 4.0 μM, 72 h, dose–response, listed as CZT456, 4 µM) was 1 % of controll and 8 % of controll and 9 % of controll, the “HEK293T CLPP-/- Cell viability (% of controll)” value ([4]; 6.4 μM, 72 h, dose–response) was 0 % of controll and the “HEK293T CLPP-/- Cell viability (% of controll)” value ([4]; 16.25 μM, 72 h, dose–response) was 0 % of controll. The “HEK293T CLPP-/- Cell viability (% of controll)” value ([4]; 26 μM, 72 h, dose–response) was 0 % of controll, the “effect on the viability of HEK293T CLPP^−/− cells” value ([4]; dose–response, 72 h, compared with HEK293T WT) was “maintained” and the IC50 ([4]; read-out: IC50 (µM) HEK293T CLPP^−/−, 72 h treatment, ± SEM, best-fit values, n = 4) was 2.4 ± 0.03 µM. The “HEK293T WT Cell viability (% of controll)” value ([5]; 0.4 μM) was 106 % of controll and 101 % of controll and 99 % of controll and 100 % of controll, the “HEK293T WT Cell viability (% of controll)” value ([5]; 0.6 μM) was 106 % of controll (2×) and 109 % of controll and 81 % of controll and the “HEK293T WT Cell viability (% of controll)” value ([5]; 1.0 μM) was 82 % of controll and 90 % of controll and 94 % of controll and 81 % of controll. The “HEK293T WT Cell viability (% of controll)” value ([5]; 1.6 μM) was 65 % of controll and 60 % of controll and 52 % of controll (2×), the “HEK293T WT Cell viability (% of controll)” value ([5]; 2.5 μM) was 11 % of controll and 6 % of controll and 5 % of controll (2×) and the “HEK293T WT Cell viability (% of controll)” value ([5]; 4.0 μM) was 0 % of controll. For the same compound, the “HEK293T WT Cell viability (% of controll)” value ([5]; 6.4 μM) was 0 % of controll, the “HEK293T WT Cell viability (% of controll)” value ([5]; 16.25 μM) was 0 % of controll and the “HEK293T WT Cell viability (% of controll)” value ([5]; 26 μM) was 0 % of controll. The IC50 ([5]; read-out: HEK293T WT IC50 values, individual replicates n1-n4, IC50 independently determined for each replicate measurement (Supplement S.6)) was 1.6 µM and 1.5 µM and 1.65 µM and 1.62 µM, the IC50 ([5]; read-out: IC50 (µM) HEK293T WT, 72 h treatment, ± SEM, best-fit values, n = 4) was 1.6 ± 0.04 µM and the “PANC-1 Cell viability (% of controll)” value ([6]; 0.7 μM, 72 h) was 112 % of controll and 107 % of controll and 109 % of controll. For the same compound, the “PANC-1 Cell viability (% of controll)” value ([6]; 1 μM, 72 h) was 107 % of controll and 114 % of controll and 110 % of controll, the “PANC-1 Cell viability (% of controll)” value ([6]; 1.5 μM, 72 h) was 116 % of controll and 119 % of controll and 108 % of controll and the “PANC-1 Cell viability (% of controll)” value ([6]; 2.3 μM, 72 h) was 97 % of controll and 105 % of controll and 115 % of controll. For the same compound, the “PANC-1 Cell viability (% of controll)” value ([6]; 3.4 μM, 72 h) was 2 % of controll (2×) and 4 % of controll, the “PANC-1 Cell viability (% of controll)” value ([6]; 5.1 μM, 72 h) was 0 % of controll and the “PANC-1 Cell viability (% of controll)” value ([6]; 7.7 μM, 72 h) was 0 % of controll. For the same compound, the “PANC-1 Cell viability (% of controll)” value ([6]; 17.3 μM, 72 h) was 0 % of controll, the “PANC-1 Cell viability (% of controll)” value ([6]; 26 μM, 72 h) was 0 % of controll and the “Cell Viability (% of Control) 2.8 µM” value ([6]; PANC-1, 2.8 µM, 72 h, second-set screening, mean ± SD, n = 2) was 44 ± 41 % of Control. For the same compound, the “Cell Viability (% of Control) 8.3 µM” value ([6]; PANC-1, 8.3 µM, 72 h, second-set screening, mean ± SD, n = 2) was 0 ± 0 % of Control, the “Cell Viability (% of Control) 25 µM” value ([6]; PANC-1, 25 µM, 72 h, second-set screening, mean ± SD, n = 2) was 0 ± 0 % of Control and the “Selectivity Index (SI) Fibroblast/PANC-1” value ([6]; ratio of mean best-fit IC50 for primary fibroblasts and best-fit IC50 for PANC-1) was 1.7. For the same compound, the IC50 ([6]; read-out: IC50 Value ± SEM PANC-1, 72 h treatment, best-fit values, n = 3) was 2700 ± 70 nM, the IC50 ([6]; read-out: PANC-1 IC50 values, Mean, mean of independently fitted replicate IC50 values (Supplement S.6)) was 2710 nM and the IC50 ([6]; read-out: PANC-1 IC50 values, individual replicates n1-n3, IC50 independently determined for each replicate measurement (Supplement S.6)) was 2790 nM and 2620 nM and 2720 nM. The “viable cells / colonies after shorter exposure” value ([7]; 24 h treatment followed by 5 days post-incubation) was “left only traces of viable cells” and the “viable cells / colonies after longer exposure” value ([7]; 72 h treatment followed by 3 days post-incubation) was “no viable cells were discernible”.
